Measurements: publication PMC4445002, “Efficient inhibition of tumor angiogenesis and growth by a synthetic peptide blocking S100A4-methionine aminopeptidase 2 interaction” (Molecular Therapy. Methods & Clinical Development, 2015)

Legend:
[1] = tested on: new blood vessel formation in BALB/c nude mice; assay: Directed in vivo angiogenesis assay (DIVAA) in nude mice; parameters: species or system mouse; details: angioreactors with Afs (bFGF, VEGF, heparin), peptide (1 mg/ml) with atelocollagen, s.c. implant, 15 days, n = 3; NBD P < 0.01
[2] = tested on: vinculin and integrin β1 focal adhesions in MSS31 cells; assay: Focal adhesion and F-actin immunofluorescence; type: cell-based, mouse; details: 5 μg/well, 18 hours
Procedure: Figure 7 Stimulation of the formation of focal contacts by the NBD peptide. MSS31 cells incubated with atelocollagen alone or the peptide/atelocollagen complexes were subjected to immunofluorescent staining and western blot analysis. (a) Formation of focal adhesions. The cells were immunostained with antivinculin or anti-integrin β1 antibody followed by Alexa Fluor 488-conjugated secondary antibody. F-actin was visualized with Atto 647N-Phalloidin. Nuclei were stained with DAPI. Scale bars: 50 μm. (b) Western blot analysis of focal adhesion proteins. Total cellular proteins were subjected to immunoblot analysis. (c) Relative expression level of vinculin (VCN), integrin β1 (ITGβ1) and p-FAK. The band intensity of VCN and ITGβ1 and p-FAK relative to that of β-actin and total FAK, respectively, was measured using ImageJ software and normalized to control cells.
MSS31 cells cultured in six-well plates were incubated with 5 μg/well of the NBD or the CBD peptide/atelocollagen complex or atelocollagen alone for 18 hours in Culture Slides (4 wells, BD Falcon) and were washed three times with DPBS and fixed for 10 minutes at 4 °C with 4% formaldehyde in DPBS. After permeabilizing with 0.5% Triton X-100 in DPBS for 4 minutes, the cells were treated with 3% bovine serum albumin in DPBS containing 0.1% glycine for 1 hour to block nonspecific binding sites. After washing with DPBS, the cells were incubated for 1 hour with primary antibodies, rinsed, and then stained with secondary antibodies. The primary antibodies used were polyclonal anti-S100A4, monoclonal anti-NMIIA antibody, monoclonal antivinculin antibody and polyclonal anti-integrin β1 antibody. The secondary antibody was Alexa Fluor 488-conjugated goat antirabbit IgG (Invitrogen) or Alexa Fluor 594-conjugated goat antimouse IgG (Invitrogen). F-Actin was visualized with Atto 647N-Phalloidin (Sigma-Aldrich). Nuclei were stained with 1 μg/ml DAPI. The slides were mounted with VECTASHIELD Mounting Medium (Vector Laboratories). The cells were observed under a confocal laser scanning microscope (Fluoview FV1000, Olympus, Japan).

PC-3M-Luc cells = assay: PC-3M-Luc cell growth in vitro; type: cell-based, human
Procedure: (§1) Caspase3/7 assays was performed with Apo-ONE Caspase-3/7 Assay
(§2) Reagent (Promega). No significant changes are observed.
F i g . […]
(§3) PC-3M-Luc cells were treated with atelocollagen alone or the NBD peptide/atelocollagen complex in vitro, and their growth rate was monitored.
(§4) The values represent cell growth rate relative to that of control cells that is […]
(§5) MSS31 cells were incubated with the peptide/atelocollagen complexes.
(§6) Isolation of total RNA and subsequent qRT-PCR analysis were carried out as described previously (30). The GAPDH gene was used as an internal control.
(§7) (a) Proangiogenic genes in NBD and CBD peptides-treated cells. (b)
(§8) Antiangiogenic genes in NBD and CBD peptides-treated cells.

[3] = tested on: S100A4-MetAP2 interaction; assay: In vitro GST pull-down binding assay S100A4-MetAP2; details: [35S]MetAP2, GST/S100A4, 1 mmol/l CaCl2; peptide at 25-fold molar excess of MetAP2
[4] = tested on: angiogenesis-related genes in MSS31 cells; assay: Expression of angiogenesis-related genes by qRT-PCR; type: cell-based, mouse; details: atelocollagen complex, retn, fgf18, aqp1, map3k5, thy1, foxo6, hs6st1, cdkn1a, thbs1, spry4
Procedure: Therefore, an alternative action mechanism of the NBD peptide would be the modulation of the expression of these angiogenesis-related genes.
as §1, §2
F i g . […]
as §3, §4, §5, §6, §7, §8

PC-3M-Luc tumors = assay: Tumor growth by bioluminescence imaging of PC-3M-Luc xenografts; type: in vivo, human tumor in athymic nude mice
Procedure: Figure 5 Inhibition of tumor angiogenesis and tumor growth of human prostate cancer cells by the NBD peptide. The peptide/atelocollagen was injected into the subcutaneous tumors on day 3 after inoculation of PC-3M-Luc cells. Atelocollagen alone was injected as controls. (a) Microvessel density. Anti-CD31-antibody staining was used to detect angiogenesis. Arrows show microvessels. The images were digitally processed for assessment of angiogenesis. (b) Inhibition of tumor growth by peptide delivery in vivo. Representative bioluminescent images of nude are shown. L, tumors treated with the CBD peptide; R, tumors treated with the NBD peptide. (c) The photon count of the bioluminescence is shown. […]
Animal experiments were performed in compliance with the guidelines of the Institute for Laboratory Animal Research at the National Cancer Center Research Institute. […] Ten minutes later, photons from animal whole bodies were counted using the IVIS imaging system (Caliper Life Sciences) according to the manufacturer’s instructions. Data were analyzed by living image 2.50 software (Caliper Life Sciences).
The peptide/atelocollagen complex was prepared by mixing equal volumes of atelocollagen (0.1% in PBS at pH 7.4) and peptide solution (1 mg/ml) with rotation for 30 minutes at 4 °C. […] Mice were monitored by bioluminescent imaging 14 days after the injection of the peptide/atelocollagen complex. […]

## NBD: N-terminal 39 amino acid sequence of SBD, from Arg170 to Ileu208; corresponding to MetAP2 (170–208) (REAAEAHRQVRKYVMSWIKPGMTMIEICEKLEDCSRKLI)
[1]
  in vivo angiogenesis (DIVAA): potently suppressed the angiogenic factors-induced angiogenesis
[2]; atelocollagen complex, vinculin and integrin β1 staining
  number of focal adhesions per cell: greater number of vinculin- and integrin β1-containing focal adhesions per cell than the untreated and the CBD peptide-treated cells
[2]; immunofluorescence
  distribution of focal adhesions: focal adhesions were distributed uniformly
[2]; phalloidin staining
  formation of actin filaments: Formation of actin filaments was also prominent
PC-3M-Luc cells; discussion wording, p53-null cells
  proliferation of PC-3 cells: did not influence the proliferation of PC-3 cells
PC-3M-Luc cells; in vitro, NBD peptide/atelocollagen complex, vs untreated, Supplementary Figure S6
  growth rate of PC-3M-Luc cells: comparable growth rate to that of untreated cells
[3]
  inhibition of S100A4-MetAP2 interaction (GST pull-down): inhibited the binding as efficiently as SBD
[4]
  expression of angiogenesis-related genes: could not detect any alteration of the expression of these genes
PC-3M-Luc tumors; single intra-tumor administration, human prostate cancer xenografts (abstract)
  vascularity and tumor regression: significantly reduced vascularity, resulting in tumor regression
PC-3M-Luc tumors; single intratumoral injection of 100 μg peptide in atelocollagen, bioluminescence on day 14, vs atelocollagen alone and CBD, n = 7, P < 0.05
  tumor growth: significant inhibition of the growth of tumors
